From the NIST ThermoML archive (doi:10.1016/j.jct.2005.12.005)

How the values were obtained:
[1] = 101 kPa, Liquid; for speed of sound: Sing-around technique in a fixed-path interferometer
[2] = refractive index (Na D-line) (dimensionless); conditions: 101.33 kPa, Liquid
[3] = xn = mol fraction of the nth substance listed; conditions: 101 kPa, Liquid; for speed of sound: Sing-around technique in a fixed-path interferometer
[4] = refractive index (Na D-line) (dimensionless); xn = mol fraction of the nth substance listed; conditions: 101 kPa, Liquid

Cc1ccccc1 [toluene]
Conditions	mass density, 298.15 K [kg/m3]	mass density, 303.15 K [kg/m3]	mass density, 308.15 K [kg/m3]	refractive index, 298.15 K	refractive index, 303.15 K	refractive index, 308.15 K	speed of sound, 298.15 K [m/s]	viscosity, 298.15 K [mPa·s]	viscosity, 303.15 K [mPa·s]	viscosity, 308.15 K [mPa·s]
[1]	862.3	857.6	852.9	–	–	–	1314	0.559	0.526	0.497
[2]	–	–	–	1.4931	1.4902	1.4874	–	–	–	–

CC1CCCCC1 [methylcyclohexane] + c1ccccc1
Conditions	mass density, 298.15 K [kg/m3]	mass density, 303.15 K [kg/m3]	mass density, 308.15 K [kg/m3]	refractive index, 298.15 K	refractive index, 303.15 K	refractive index, 308.15 K	speed of sound, 298.15 K [m/s]	viscosity, 298.15 K [mPa·s]	viscosity, 303.15 K [mPa·s]	viscosity, 308.15 K [mPa·s]
[3], x1 = 0.104	855.9	850.7	845.5	–	–	–	1293	0.584	0.546	0.509
[3], x1 = 0.2045	840.8	835.8	830.7	–	–	–	1284	0.566	0.53	0.494
[3], x1 = 0.302	827.6	822.7	817.8	–	–	–	1276	0.561	0.527	0.492
[3], x1 = 0.4006	815.8	811	806.2	–	–	–	1267	0.556	0.523	0.49
[3], x1 = 0.5007	805	800.3	795.6	–	–	–	1259	0.559	0.527	0.496
[3], x1 = 0.6004	795.3	790.6	786	–	–	–	1250	0.571	0.537	0.504
[3], x1 = 0.7056	785.9	781.4	776.8	–	–	–	1242	0.597	0.564	0.531
[3], x1 = 0.8033	778.5	774	769.5	–	–	–	1234	0.617	0.583	0.549
[3], x1 = 0.8982	771.4	767	762.6	–	–	–	1225	0.647	0.607	0.567
[3], x1 = 1	765	760.7	756.3	–	–	–	1217	0.676	0.631	0.59
[4], x1 = 0.104	–	–	–	1.484	1.481	1.4779	–	–	–	–
[4], x1 = 0.2045	–	–	–	1.4728	1.4702	1.4675	–	–	–	–
[4], x1 = 0.302	–	–	–	1.4628	1.4604	1.458	–	–	–	–
[4], x1 = 0.4006	–	–	–	1.455	1.4524	1.4499	–	–	–	–
[4], x1 = 0.5007	–	–	–	1.4475	1.4448	1.4422	–	–	–	–
[4], x1 = 0.6004	–	–	–	1.441	1.4384	1.4357	–	–	–	–
[4], x1 = 0.7056	–	–	–	1.4341	1.4316	1.4292	–	–	–	–
[4], x1 = 0.8033	–	–	–	1.429	1.4262	1.4235	–	–	–	–
[4], x1 = 0.8982	–	–	–	1.4245	1.4219	1.4192	–	–	–	–
[4], x1 = 1	–	–	–	1.4217	1.4192	1.4163	–	–	–	–

COc1ccccc1 [anisole]
Conditions	mass density, 298.15 K [kg/m3]	mass density, 303.15 K [kg/m3]	mass density, 308.15 K [kg/m3]	refractive index, 298.15 K	refractive index, 303.15 K	refractive index, 308.15 K	speed of sound, 298.15 K [m/s]	viscosity, 298.15 K [mPa·s]	viscosity, 303.15 K [mPa·s]	viscosity, 308.15 K [mPa·s]
[1]	989.2	984.5	979.8	–	–	–	1410	1.008	0.929	0.861
[2]	–	–	–	1.5136	1.5112	1.5088	–	–	–	–
